Results reported in patent publication US20120022040A1, “ANTIMICROBIALS” (priority 2008, published 2012).
In brackets after ≈: the same amount, converted by molar mass.

Assays:
[1] = system: SA 29213; assay: MIC90 determination by serial dilution; assay type: cell-based; conditions: Staphylococcus aureus, dilution series from the Max Conc.
Protocol: (§1) Compounds (1), (2), and (3) were tested to determine MIC90 values.
(§2) Rules for determining MIC values: Each extract has a starting concentration which is diluted 7 times for a total of 8 dilutions. The MIC is the lowest dilution without growth. Each serial dilution is repeated three times for three identical dilutions. For reporting the results, the following rules were used. Inconsistent values were thrown out. For instance, the MIC value reported for an extract with MIC readings of 4, 4, and 2 would be four (the 2 is thrown out). If the readings are all different and in series like 2, 4, and 8, the median MIC value of 4 would be reported. If the three values are all different and not in series, an error is reported. Besides the three identical dilutions at the same starting concentration, each extract has dilutions starting at three different concentrations: 64, 4, and 0.25 μg/mL. Each extract therefore has 3 identical dilution series at 3 different starting concentrations—a total of 24 dilutions. The dilutions overlap which can result in a disagreement in MIC values for two different starting dilutions. Since a small amount of error is introduced with each dilution, the MIC readings with the fewest dilutions are selected as the correct MIC values.
(§3) Abbreviations: MRSA=methicillin-resistant Staphylococcus aureus; SA=Staphylococcus aureus; PA=Pseudomonas aeruginosa; Kleb=Klebsiella pneumonia; EC=Escherichia coli; VSE=Vancomycin-sensitive enterococci faecium.

[2] = system: PA 27853; assay: MIC90 determination by serial dilution; assay type: cell-based; conditions: Pseudomonas aeruginosa, dilution series from the Max Conc.
Protocol: as §1, §2, §3

[3] = system: EC 25922; assay: MIC90 determination by serial dilution; assay type: cell-based; conditions: Escherichia coli, dilution series from the Max Conc.
Protocol: as §1, §2, §3

[4] = system: MRSA 43300; assay: IC50 determination (XlFit dose response model 200); assay type: cell-based, methicillin-resistant Staphylococcus aureus; conditions: Staphylococcus aureus, average of 3 replicates
Protocol: (§4) Compounds (1), (2), and (3) were tested to determine IC50 values. IC50 was determined using XlFit add-in using dose response model 200. The average of 3 replicates is presented for each compound in Table 2.

[5] = system: SA 29213; assay: IC50 determination (XlFit dose response model 200); assay type: cell-based; conditions: Staphylococcus aureus, average of 3 replicates
Protocol: as §4

[6] = system: PA 27853; assay: IC50 determination (XlFit dose response model 200); assay type: cell-based; conditions: Pseudomonas aeruginosa, average of 3 replicates
Protocol: as §4

[7] = system: EC 25922; assay: IC50 determination (XlFit dose response model 200); assay type: cell-based; conditions: Escherichia coli, average of 3 replicates
Protocol: as §4

[8] = system: MRSA 43300; assay: MIC90 determination by serial dilution; assay type: cell-based, methicillin-resistant Staphylococcus aureus; conditions: Staphylococcus aureus, dilution series from the Max Conc.
Protocol: as §1, §2, §3

[9] = system: VSE 49452; assay: MIC90 determination by serial dilution; assay type: cell-based, Vancomycin-sensitive enterococci faecium; conditions: dilution series from the Max Conc.
Protocol: as §1, §2, §3

[10] = system: VSE 6569; assay: MIC90 determination by serial dilution; assay type: cell-based, Vancomycin-sensitive enterococci faecium; conditions: dilution series from the Max Conc.
Protocol: as §1, §2, §3

[11] = system: VSE 49452; assay: IC50 determination (XlFit dose response model 200); assay type: cell-based, Vancomycin-sensitive enterococci faecium; conditions: average of 3 replicates
Protocol: as §4

[12] = system: VSE 6569; assay: IC50 determination (XlFit dose response model 200); assay type: cell-based, Vancomycin-sensitive enterococci faecium; conditions: average of 3 replicates
Protocol: as §4

[13] = system: Kleb 4352; assay: MIC90 determination by serial dilution; assay type: cell-based, Klebsiella pneumonia; conditions: Klebsiella pneumoniae, dilution series from the Max Conc.
Protocol: as §1, §2, §3

[14] = system: Kleb 4352; assay: IC50 determination (XlFit dose response model 200); assay type: cell-based, Klebsiella pneumonia; conditions: Klebsiella pneumoniae, average of 3 replicates
Protocol: as §4

| MIC90 [1] [µg/mL] | MIC90 [2] [µg/mL] | MIC90 [3] [µg/mL] | IC50 [4] [µg/mL] | IC50 [5] [µg/mL] | IC50 [6] [µg/mL] | IC50 [7] [µg/mL] | MIC90 [8] [µg/mL] | MIC90 [9] [µg/mL] | MIC90 [10] [µg/mL] | IC50 [11] [µg/mL] | IC50 [12] [µg/mL] | MIC90 [13] [µg/mL] | IC50 [14] [µg/mL] | SMILES |
| --- | --- | --- | --- | --- | --- | --- | --- | --- | --- | --- | --- | --- | --- | --- |
| ≤ 2 | > 64 | 64 (≈ 87.2 µM) | > 64 | < 2 | > 64 | 20.7 (≈ 28.2 µM) | > 64 | ≤ 2 | 8 (≈ 10.9 µM) | < 2 | 2.75 (≈ 3.75 µM) | 8 (≈ 10.9 µM) | 2.21 (≈ 3.01 µM) | CC[C@H]1OC(=O)[C@H](C)[C@@H](O[C@H]2C[C@@](C)(OC)[C@@H](O)[C@H](C)O2)[C@H](C)[C@@H](O[C@@H]2O[C@H](C)C[C@H](N(C)C)[C@H]2O)[C@](C)(O)C[C@@H](C)C(=O)[C@H](C)[C@@H](O)[C@]1(C)O [Erythromycin] |
| 0.25 (≈ 0.652 µM) | 1 (≈ 2.61 µM) | 0.06 (≈ 0.156 µM) | 0.037 (≈ 0.0965 µM) | 0.126 (≈ 0.329 µM) | 0.945 (≈ 2.46 µM) | 0.122 (≈ 0.318 µM) | 4 (≈ 10.4 µM) | 16 (≈ 41.7 µM) | 32 (≈ 83.4 µM) | 6.74 (≈ 17.6 µM) | 11.8 (≈ 30.8 µM) | 0.12 (≈ 0.313 µM) | 0.121 (≈ 0.316 µM) | C[C@@H](O)[C@H]1C(=O)N2C(C(=O)O)=C(S[C@@H]3CN[C@H](C(=O)N(C)C)C3)[C@H](C)[C@H]12 [Meropenem, meropenem, reference compound] |
| – | 32 (≈ 72 µM) | – | – | – | 6.3 (≈ 14.2 µM) | – | – | – | – | – | – | – | – | C[C@H]1c2cccc(O)c2C(=O)C2=C(O)[C@]3(O)C(=O)C(C(N)=O)=C(O)[C@@H](N(C)C)[C@@H]3[C@@H](O)[C@@H]21 [Doxycycline] |
| 16 (≈ 67.2 µM) | > 32 | 8 (≈ 33.6 µM) | 1.83 (≈ 7.67 µM) | 7.71 (≈ 32.4 µM) | > 32 | 3.27 (≈ 13.7 µM) | 8 (≈ 33.6 µM) | 8 (≈ 33.6 µM) | 32 (≈ 134 µM) | 3.57 (≈ 15 µM) | 2.87 (≈ 12.1 µM) | 16 (≈ 67.2 µM) | 3.68 (≈ 15.4 µM) | O=C1CN(/N=C/c2ccc([N+](=O)[O-])o2)C(=O)N1 [Nitrofurantoin] |
| 2 (≈ 1.95 µM) | > 64 | > 64 | 0.265 (≈ 0.258 µM) | 0.942 (≈ 0.918 µM) | > 64 | > 64 | 8 (≈ 7.8 µM) | 16 (≈ 15.6 µM) | 64 (≈ 62.4 µM) | 6.91 (≈ 6.73 µM) | 15.2 (≈ 14.8 µM) | > 64 | > 64 | CCC(C)(C)C(=O)C(=O)N1CCCC[C@H]1C(=O)O[C@H](CCc1ccc(OC)c(OC)c1)c1cccc(OCCNC(=O)c2cccc(NC(=O)[C@@H]3C[C@H](SC4=C(C(=O)O)N5C(=O)[C@H]([C@@H](C)O)[C@H]5[C@H]4C)CN3)c2)c1 [(1), (4R,5S,6S)-3-((3S,5S)-5-(3-(2-(3-((R)-3-(3,4-dimethoxyphenyl)-1-((S)-1-(3,3-dimethyl-2-oxopentanoyl)piperidine-2-carbonyloxy)propyl)phenoxy)ethylcarbamoyl)phenylcarbamoyl)pyrrolidin-3-ylthio)-6-((R)-1-hydroxyethyl)-4-methyl-7-oxo-1-azabicyclo[3.2.0]hept-2-ene-2-carboxylic acid] |
| 2 (≈ 1.93 µM) | > 64 | > 64 | 0.17 (≈ 0.164 µM) | 0.871 (≈ 0.842 µM) | > 64 | > 64 | 8 (≈ 7.73 µM) | 16 (≈ 15.5 µM) | 32 (≈ 30.9 µM) | 1.6 (≈ 1.55 µM) | 7.23 (≈ 6.99 µM) | > 64 | > 64 | CCC(C)(C)C(=O)C(=O)N1CCCC[C@H]1C(=O)O[C@H](CCc1ccc(OC)c(OC)c1)c1cccc(OCC(=O)NCCCCCN2C[C@@H](SC3=C(C(=O)O)N4C(=O)[C@H]([C@@H](C)O)[C@H]4[C@H]3C)C[C@H]2C(=O)N(C)C)c1 [(2), (4R,5S,6S)-3-((3S,5S)-1-(5-(2-(3-((R)-3-(3,4-dimethoxyphenyl)-1-((S)-1-(3,3-dimethyl-2-oxopentanoyl)piperidine-2-carbonyloxy)propyl)phenoxy)acetamido)pentyl)-5-(dimethylcarbamoyl)pyrrolidin-3-ylthio)-6-((R)-1-hydroxyethyl)-4-methyl-7-oxo-1-azabicyclo[3.2.0]hept-2-ene-2-carboxylic acid] |
| – | 1 (≈ 1.71 µM) | – | – | – | 0.274 (≈ 0.468 µM) | – | – | – | – | – | – | – | – | NCC[C@H](O)C(=O)N[C@@H]1C[C@H](N)[C@@H](O[C@H]2O[C@H](CN)[C@@H](O)[C@H](O)[C@H]2O)[C@H](O)[C@H]1O[C@H]1O[C@H](CO)[C@@H](O)[C@H](N)[C@H]1O [Amikacin] |
| 8 (≈ 24.8 µM) | > 64 | 8 (≈ 24.8 µM) | < 2 | > 64 | > 64 | < 2 | 4 (≈ 12.4 µM) | 4 (≈ 12.4 µM) | ≤ 2 | < 2 | < 2 | ≤ 2 | > 64 | O=C(N[C@H](CO)[C@H](O)c1ccc([N+](=O)[O-])cc1)C(Cl)Cl [Chloramphenicol] |
